Where two headings read alike, the source gives them in different places.
How the values were obtained:
Type in all cases: in vivo
Tetranychus urticae = Tetranychus urticae spray test, OP-resistant; settings: application rate 500 g/ha; after 6 days
Protocol: Tetranychus urticae—Spray Test, OP-Resistant
Solvent: 78.0 Parts by Weight of Acetone • • 1.5 parts by weight of dimethylformamide
(§1) Emulsifier: alkylaryl polyglycol ether
(§2) To produce a suitable active compound formulation, 1 part by weight of active compound is dissolved with the specified parts by weight of solvent and made up to the desired concentration with water containing an emulsifier concentration of 1000 ppm. To produce further test concentrations, the formulation is diluted with emulsifier-containing water.
Discs of bean leaves (Phaseolus vulgaris) infested with all stages of the greenhouse red spider mite (Tetranychus urticae) are sprayed with an active compound formulation of the desired concentration.
After 6 days, the efficacy in % is determined. 100% means that all the spider mites have been killed; 0% means that no spider mites have been killed.

Spodoptera frugiperda = Spodoptera frugiperda spray test; settings: for pest or weed control at 500 g/ha: Spodoptera frugiperda, 168 h, read-out: efficacy
Protocol: Spodoptera frugiperda—Spray Test
(§3) Solvent: 78.0 parts by weight of acetone • • 1.5 parts by weight of dimethylformamide
as §1, §2
Leaf discs of maize (Zea mays) are sprayed with an active compound formulation of the desired concentration and, after drying, populated with caterpillars of the fall armyworm (Spodoptera frugiperda).
After 7 days, the efficacy in % is determined. 100% means that all the caterpillars have been killed; 0% means that no caterpillar has been killed.

Phaedon cochleariae = Phaedon cochleariae spray test; settings: for pest or weed control at 500 g/ha: Phaedon cochleariae, 168 h, read-out: efficacy
Protocol: Phaedon cochleariae—Spray Test
as §3, §1, §2
Discs of Chinese cabbage leaves (Brassica pekinensis) are sprayed with an active compound formulation of the desired concentration and, after drying, populated with larvae of the mustard beetle (Phaedon cochleariae).
After 7 days, the efficacy in % is determined. 100% means that all the beetle larvae have been killed; 0% means that no beetle larvae have been killed.

Rhipicephalus sanguineus = Rhipicephalus sanguineus in vitro contact test with adult brown dog ticks; settings: application rate 5 μg/cm^2 (=500 g/ha); after 48 h
Protocol: Rhipicephalus sanguineus—In Vitro Contact Tests with Adult Brown Dog Ticks
(§4) For the coating of the test tubes, 9 mg of active compound are first dissolved in 1 ml of acetone p.a. and then diluted to the desired concentration with acetone p.a. 250 μl of the solution are distributed homogeneously on the inner walls and the base of a 25 ml glass tube by turning and rocking on an orbital shaker (rocking rotation at 30 rpm for 2 h). With 900 ppm of active compound solution and internal surface area 44.7 cm^2, given homogeneous distribution, an area-based dose of 5 μg/cm^2 is achieved.
After the solvent has evaporated off, the tubes are populated with 5-10 adult dog ticks (Rhipicephalus sanguineus), sealed with a perforated plastic lid and incubated in a horizontal position in the dark at room temperature and ambient humidity. After 48 h, efficacy is determined. To this end, the ticks are knocked to the base of the tube and incubated on a hotplate at 45-50° C. for not more than 5 min. Ticks which remain motionless on the base or move in such an uncoordinated manner that they are unable to deliberately avoid the heat by climbing upwards are considered to be dead or moribund.
An efficacy of 100% means that all the ticks were dead or moribund. 0% efficacy means that none of the ticks were harmed.

Boophilus microplus = Boophilus microplus injection test; settings: for pest or weed control at 0.02 mg: Rhipicephalus microplus, 168 h
Protocol: Boophilus microplus—Injection Test
(§5) Solvent: dimethyl sulfoxide
To produce a suitable active compound formulation, 10 mg of active compound are mixed with 0.5 ml of solvent and the concentrate is diluted to the desired concentration with solvent.
1 μl of the active compound solution is injected into the abdomen of 5 engorged adult female cattle ticks (Boophilus microplus). The animals are transferred into dishes and kept in a climate-controlled room.
Efficacy is assessed after 7 days by laying of fertile eggs. Eggs which are not visibly fertile are stored in a climate-controlled cabinet until the larvae hatch after about 42 days. An efficacy of 100% means that none of the ticks has laid any fertile eggs; 0% means that all the eggs are fertile.

Ctenocephalides felis = Ctenocephalides felis in vitro contact test with adult cat fleas; settings: application rate 5 μg/cm^2 (=500 g/ha); after 48 h
Protocol: Ctenocephalides felis—In Vitro Contact Tests with Adult Cat Fleas
as §4
After the solvent has evaporated off, the tubes are populated with 5-10 adult cat fleas (Ctenocephalides felis), sealed with a perforated plastic lid and incubated in a horizontal position at room temperature and ambient humidity. After 48 h, efficacy is determined. To this end, the tubes are stood upright and the fleas are knocked to the base of the tube. Fleas which remain motionless at the base or move in an uncoordinated manner are considered to be dead or moribund.
100% efficacy means that all the fleas were dead or moribund. 0% efficacy means that no fleas were harmed.

Lucilia cuprina = Lucilia cuprina test; settings: application rate 100 ppm; L1 larvae; after 2 days
Protocol: as §5
To produce a suitable active compound formulation, 10 mg of active compound are mixed with 0.5 ml of dimethyl sulfoxide, and the concentrate is diluted with water to the desired concentration.
About 20 L1 larvae of the Australian sheep blowfly (Lucilia cuprina) are transferred into a test vessel containing minced horsemeat and the active compound formulation of the desired concentration.
After 2 days, the kill in % is determined. 100% means that all the larvae have been killed; 0% means that no larvae have been killed.

[1] = application rate 500 g/ha, after 7 days
[2] = application rate 20 μg/animal, after 7 days

For CON(C)CCOc1ncc(COc2ccc(Cl)c3ccccc23)cc1Cl [Example 7], the efficacy (Tetranychus urticae) was 100%.

CON(C)CCOc1ccc(COc2ccc3oc4ccccc4c3c2)cn1 [Example 8] showed an efficacy (Spodoptera frugiperda; [1]) of 100% and an efficacy (Phaedon cochleariae; [1]) of 100%.

In the case of CCN(CC)CCOc1ccc(COc2cccc3c(Cl)c(Cl)ccc23)cn1 [Example 9], the “efficacy (ticks dead or moribund)” value (Rhipicephalus sanguineus) is reported as 100%, the efficacy (Spodoptera frugiperda; [1]) is reported as 100% and the “efficacy (laying of fertile eggs)” value (Boophilus microplus; [2]) is reported as 90%. The efficacy (Phaedon cochleariae; [1]) was 83% and the “efficacy (fleas dead or moribund)” value (Ctenocephalides felis) was 100%.

For CON(C)CCOc1ccc(COc2cccc3c(Cl)c(Cl)ccc23)nc1Cl [Example 18], the efficacy (Spodoptera frugiperda; [1]) was 100% and the “efficacy (laying of fertile eggs)” value (Boophilus microplus; [2]) was 100%.

For CON(C)CCOc1cnc(COc2cccc3c(F)cccc23)c(F)c1 [Example 24], the “efficacy (ticks dead or moribund)” value (Rhipicephalus sanguineus) was 100%, the efficacy (Spodoptera frugiperda; [1]) was 83% and the “efficacy (laying of fertile eggs)” value (Boophilus microplus; [2]) was 100%. For the same compound, the “efficacy (fleas dead or moribund)” value (Ctenocephalides felis) was 100%.

CON(C)CCOc1cnc(COc2ccc(Cl)c3ccccc23)c(Cl)c1 [Example 25] was tested, and the efficacy (Spodoptera frugiperda; [1]) was 100% and the “efficacy (laying of fertile eggs)” value (Boophilus microplus; [2]) was 100%.

CN(CC#N)CCOc1cnc(COc2cccc3c(Cl)c(Cl)ccc23)c(F)c1 [Example 28] was tested, and the “efficacy (ticks dead or moribund)” value (Rhipicephalus sanguineus) was 100%, the “efficacy (laying of fertile eggs)” value (Boophilus microplus; [2]) was 100% and the “efficacy (kill in %)” value (Lucilia cuprina) was 100%.

With CON(C)CCOc1ccc(COc2ccc3oc4ccccc4c3c2)nc1 [Example 31] the “efficacy (ticks dead or moribund)” value (Rhipicephalus sanguineus) was 100%, the efficacy (Spodoptera frugiperda; [1]) was 100% and the “efficacy (laying of fertile eggs)” value (Boophilus microplus; [2]) was 100%. The efficacy (Phaedon cochleariae; [1]) was 100% and the “efficacy (kill in %)” value (Lucilia cuprina) was 100%.

CCN(CC)CCOc1cnc(COc2cccc3c(Cl)c(Cl)ccc23)c(F)c1 [Example 32, 2-[(6-{[(5,6-dichloro-1-naphthyl)oxy]methyl}-5-fluoropyridin-3-yl)oxy]-N,N-diethylethanamine] gave a pest or weed control at 500 g/ha (Spodoptera frugiperda; [1]) of 100%, a pest or weed control at 0.02 mg (Boophilus microplus; application rate 20 μg/animal, after 7 days, read-out: efficacy (laying of fertile eggs)) of 100% and an efficacy (Tetranychus urticae) of 90%. For the same compound, the “efficacy (fleas dead or moribund)” value (Ctenocephalides felis) was 100%.

In the case of CCN(CC)CCOc1ccc(COc2cccc3c(Cl)c(Cl)ccc23)nc1 [Example 33], the efficacy (Spodoptera frugiperda; [1]) is reported as 100%, the “efficacy (laying of fertile eggs)” value (Boophilus microplus; [2]) is reported as 80% and the efficacy (Phaedon cochleariae; [1]) is reported as 100%.

CN(CCOc1cnc(COc2ccc3oc4ccccc4c3c2)c(F)c1)C(C)(C)C [Example 34] was tested, and the efficacy (Spodoptera frugiperda; [1]) was 100%, the “efficacy (laying of fertile eggs)” value (Boophilus microplus; [2]) was 80% and the efficacy (Tetranychus urticae) was 90%. It also gave an efficacy (Phaedon cochleariae; [1]) of 100%.

For CN(CCOc1cnc(COc2ccc3oc4ccccc4c3c2)c(F)c1)C(C)(C)C.Cl [Example 35], the efficacy (Phaedon cochleariae; [1]) was 83%.

Work on CN(CCOc1cnc(COc2cccc3c(Cl)c(Cl)ccc23)c(F)c1)C(C)(C)C [Example 36, N-{2-[(6-{[(5,6-dichloro-1-naphthyl)oxy]methyl}-5-fluoropyridin-3-yl)oxy]ethyl}-N,2-dimethylpropan-2-amine] yielded a pest or weed control at 500 g/ha (Spodoptera frugiperda) of 100%, a pest or weed control at 0.02 mg (Boophilus microplus; read-out: efficacy (laying of fertile eggs), application rate 20 μg/animal, after 7 days) of 100% and a pest or weed control at 500 g/ha (Phaedon cochleariae) of 100%.

In the case of CN(CCOc1cnc(COc2cccc3c(Cl)c(Cl)ccc23)c(F)c1)C(C)(C)C [Example 37, N-{2-[(6-{[(5,6-dichloro-1-naphthyl)oxy]methyl}-5-fluoropyridin-3-yl)oxy]ethyl}-N,2-dimethylpropan-2-aminium chloride], the efficacy (Spodoptera frugiperda; [1]) is reported as 100%, the “efficacy (laying of fertile eggs)” value (Boophilus microplus; [2]) is reported as 80% and the efficacy (Phaedon cochleariae; [1]) is reported as 100%. For the same compound, the “efficacy (fleas dead or moribund)” value (Ctenocephalides felis) was 100%.

In the case of CC(C)(C)NCCOc1cnc(COc2cccc3c(Cl)c(Cl)ccc23)c(F)c1 [Example 38], the efficacy (Spodoptera frugiperda; [1]) is reported as 100%, the “efficacy (laying of fertile eggs)” value (Boophilus microplus; [2]) is reported as 100% and the efficacy (Phaedon cochleariae; [1]) is reported as 100%. The “efficacy (kill in %)” value (Lucilia cuprina) was 80%.

CC(C)N(CCOc1cnc(COc2ccc3oc4ccccc4c3c2)c(F)c1)C(C)C [Example 40] was tested, and the efficacy (Phaedon cochleariae; [1]) was 100%.

With Fc1cc(OCCN2CCCCC2)cnc1COc1ccc2oc3ccccc3c2c1 [Example 41] the efficacy (Tetranychus urticae) was 90%.

Fc1cc(OCCN2CCCCC2)cnc1COc1cccc2c(Cl)c(Cl)ccc12 [Example 42] gave an efficacy (Spodoptera frugiperda; [1]) of 100%.

With CC(C)N(C)CCOc1cnc(COc2ccc3oc4ccccc4c3c2)c(F)c1 [Example 43] the efficacy (Phaedon cochleariae; [1]) was 100%.

Compound CCN1CCN(c2cnc(COc3cccc4c(Cl)c(Cl)ccc34)c(F)c2)CC1 [Example 45] has an efficacy (Spodoptera frugiperda; [1]) of 100% and an efficacy (Phaedon cochleariae; [1]) of 100%.

For CCN1CCN(c2cnc(COc3ccc4oc5ccccc5c4c3)c(F)c2)CC1 [Example 46], the efficacy (Spodoptera frugiperda; [1]) was 83%.

CN(CCOc1cnc(COc2ccc(F)c(-c3cccc(OC(F)(F)F)c3)c2)c(F)c1)C(C)(C)C [Example 51] was tested, and the efficacy (Spodoptera frugiperda; [1]) was 100%, the efficacy (Tetranychus urticae) was 100% and the efficacy (Phaedon cochleariae; [1]) was 83%.

CON(C)CCOc1ccc(COc2cccc3c(Cl)c(Cl)ccc23)nc1SC [Example 52, 2-{[6-{[(5,6-dichloro-1-naphthyl)oxy]methyl}-2-(methylsulfanyl)pyridin-3-yl]oxy}-N-methoxy-N-methylethanamine] gave a pest or weed control at 500 g/ha (Spodoptera frugiperda; [1]) of 100% and a pest or weed control at 500 g/ha (Phaedon cochleariae; [1]) of 100%.

Compound CN(CCOc1cnc(COc2cccc(-c3cccc(OC(F)(F)F)c3)c2)c(F)c1)C(C)(C)C [Example 66] has an efficacy (Spodoptera frugiperda; [1]) of 100% and an efficacy (Phaedon cochleariae; [1]) of 100%.

With CON(C)CCOc1ccc(COc2ccc(Cl)c(OC(F)(F)F)c2)nc1 [Example 73] the “efficacy (laying of fertile eggs)” value (Boophilus microplus; [2]) was 80% and the efficacy (Tetranychus urticae) was 100%.

For CN(CCOc1cnc(COc2ccc(F)c(-c3cccc(OC(F)(F)F)c3)c2)c(F)c1)C(C)(C)C.Cl [Example 77], the efficacy (Spodoptera frugiperda; [1]) was 100%, the efficacy (Phaedon cochleariae; [1]) was 83% and the “efficacy (kill in %)” value (Lucilia cuprina) was 90%.

With CC(C)N(CCOc1cnc(COc2ccc(Cl)c(OC(F)(F)F)c2)c(F)c1)C(C)C [Example 79] the efficacy (Phaedon cochleariae; [1]) was 100%.

With CON(C)CCOc1cnc(COc2cccc(-c3cccc(Cl)c3)c2)c(F)c1 [Example 80] the “efficacy (ticks dead or moribund)” value (Rhipicephalus sanguineus) was 100%, the efficacy (Spodoptera frugiperda; [1]) was 83% and the “efficacy (laying of fertile eggs)” value (Boophilus microplus; [2]) was 100%. For the same compound, the efficacy (Phaedon cochleariae; [1]) was 100% and the “efficacy (kill in %)” value (Lucilia cuprina) was 100%.

CON(C)CCOc1cnc(COc2ccc(F)c(Br)c2)c(F)c1 [Example 83] was tested, and the “efficacy (laying of fertile eggs)” value (Boophilus microplus; [2]) was 80% and the efficacy (Tetranychus urticae) was 100%.

In the case of CON(C)CCOc1cnc(COc2cccc(-c3cccc(F)c3)c2)c(F)c1 [Example 85], the efficacy (Spodoptera frugiperda; [1]) is reported as 83%.

In the case of COc1cc(OCCN(C)OC)cnc1COc1ccc(Cl)c2ccccc12 [Example 91], the “efficacy (laying of fertile eggs)” value (Boophilus microplus; [2]) is reported as 100%, the efficacy (Phaedon cochleariae; [1]) is reported as 83% and the “efficacy (kill in %)” value (Lucilia cuprina) is reported as 80%.

With COc1cc(OCCN(C)OC)cnc1COc1cccc2c(Cl)c(Cl)ccc12 [Example 93] the “efficacy (laying of fertile eggs)” value (Boophilus microplus; [2]) was 100% and the “efficacy (kill in %)” value (Lucilia cuprina) was 100%.

In the case of COc1cc(OCCN(C)OC)cnc1COc1cccc(-c2ccccc2)c1 [Example 94], the “efficacy (laying of fertile eggs)” value (Boophilus microplus; [2]) is reported as 80%.

For CON(C)CCOc1ncc(COc2ccc(Cl)c3ccccc23)cn1 [Example 98], the efficacy (Phaedon cochleariae; [1]) was 100%.
